According to US10077261B2, “Imidazolin-5-one derivative useful as FASN inhibitors for the treatment of cancer” (Janssen Pharmaceutica NV, priority 2012, dated 2018):

How the values were obtained:
[1] = molecular target: T1, hFASN enzyme (full length) (Homo sapiens, UniProt P49327); experiment: Fatty Acid Synthase (FASN) inhibition scintillation proximity assay; format: biochemical; conditions: for inhibition at 10 µM: read-out: Human FASN % inhibition @ 10 μM, 10 μM test compound; for IC50: read-out: Human FASN pIC50 (converted)
T1 construct: 10 μL hFASN enzyme (full length, 300 ng, purified in house); made in house
T1 sequence (P49327 whole entry): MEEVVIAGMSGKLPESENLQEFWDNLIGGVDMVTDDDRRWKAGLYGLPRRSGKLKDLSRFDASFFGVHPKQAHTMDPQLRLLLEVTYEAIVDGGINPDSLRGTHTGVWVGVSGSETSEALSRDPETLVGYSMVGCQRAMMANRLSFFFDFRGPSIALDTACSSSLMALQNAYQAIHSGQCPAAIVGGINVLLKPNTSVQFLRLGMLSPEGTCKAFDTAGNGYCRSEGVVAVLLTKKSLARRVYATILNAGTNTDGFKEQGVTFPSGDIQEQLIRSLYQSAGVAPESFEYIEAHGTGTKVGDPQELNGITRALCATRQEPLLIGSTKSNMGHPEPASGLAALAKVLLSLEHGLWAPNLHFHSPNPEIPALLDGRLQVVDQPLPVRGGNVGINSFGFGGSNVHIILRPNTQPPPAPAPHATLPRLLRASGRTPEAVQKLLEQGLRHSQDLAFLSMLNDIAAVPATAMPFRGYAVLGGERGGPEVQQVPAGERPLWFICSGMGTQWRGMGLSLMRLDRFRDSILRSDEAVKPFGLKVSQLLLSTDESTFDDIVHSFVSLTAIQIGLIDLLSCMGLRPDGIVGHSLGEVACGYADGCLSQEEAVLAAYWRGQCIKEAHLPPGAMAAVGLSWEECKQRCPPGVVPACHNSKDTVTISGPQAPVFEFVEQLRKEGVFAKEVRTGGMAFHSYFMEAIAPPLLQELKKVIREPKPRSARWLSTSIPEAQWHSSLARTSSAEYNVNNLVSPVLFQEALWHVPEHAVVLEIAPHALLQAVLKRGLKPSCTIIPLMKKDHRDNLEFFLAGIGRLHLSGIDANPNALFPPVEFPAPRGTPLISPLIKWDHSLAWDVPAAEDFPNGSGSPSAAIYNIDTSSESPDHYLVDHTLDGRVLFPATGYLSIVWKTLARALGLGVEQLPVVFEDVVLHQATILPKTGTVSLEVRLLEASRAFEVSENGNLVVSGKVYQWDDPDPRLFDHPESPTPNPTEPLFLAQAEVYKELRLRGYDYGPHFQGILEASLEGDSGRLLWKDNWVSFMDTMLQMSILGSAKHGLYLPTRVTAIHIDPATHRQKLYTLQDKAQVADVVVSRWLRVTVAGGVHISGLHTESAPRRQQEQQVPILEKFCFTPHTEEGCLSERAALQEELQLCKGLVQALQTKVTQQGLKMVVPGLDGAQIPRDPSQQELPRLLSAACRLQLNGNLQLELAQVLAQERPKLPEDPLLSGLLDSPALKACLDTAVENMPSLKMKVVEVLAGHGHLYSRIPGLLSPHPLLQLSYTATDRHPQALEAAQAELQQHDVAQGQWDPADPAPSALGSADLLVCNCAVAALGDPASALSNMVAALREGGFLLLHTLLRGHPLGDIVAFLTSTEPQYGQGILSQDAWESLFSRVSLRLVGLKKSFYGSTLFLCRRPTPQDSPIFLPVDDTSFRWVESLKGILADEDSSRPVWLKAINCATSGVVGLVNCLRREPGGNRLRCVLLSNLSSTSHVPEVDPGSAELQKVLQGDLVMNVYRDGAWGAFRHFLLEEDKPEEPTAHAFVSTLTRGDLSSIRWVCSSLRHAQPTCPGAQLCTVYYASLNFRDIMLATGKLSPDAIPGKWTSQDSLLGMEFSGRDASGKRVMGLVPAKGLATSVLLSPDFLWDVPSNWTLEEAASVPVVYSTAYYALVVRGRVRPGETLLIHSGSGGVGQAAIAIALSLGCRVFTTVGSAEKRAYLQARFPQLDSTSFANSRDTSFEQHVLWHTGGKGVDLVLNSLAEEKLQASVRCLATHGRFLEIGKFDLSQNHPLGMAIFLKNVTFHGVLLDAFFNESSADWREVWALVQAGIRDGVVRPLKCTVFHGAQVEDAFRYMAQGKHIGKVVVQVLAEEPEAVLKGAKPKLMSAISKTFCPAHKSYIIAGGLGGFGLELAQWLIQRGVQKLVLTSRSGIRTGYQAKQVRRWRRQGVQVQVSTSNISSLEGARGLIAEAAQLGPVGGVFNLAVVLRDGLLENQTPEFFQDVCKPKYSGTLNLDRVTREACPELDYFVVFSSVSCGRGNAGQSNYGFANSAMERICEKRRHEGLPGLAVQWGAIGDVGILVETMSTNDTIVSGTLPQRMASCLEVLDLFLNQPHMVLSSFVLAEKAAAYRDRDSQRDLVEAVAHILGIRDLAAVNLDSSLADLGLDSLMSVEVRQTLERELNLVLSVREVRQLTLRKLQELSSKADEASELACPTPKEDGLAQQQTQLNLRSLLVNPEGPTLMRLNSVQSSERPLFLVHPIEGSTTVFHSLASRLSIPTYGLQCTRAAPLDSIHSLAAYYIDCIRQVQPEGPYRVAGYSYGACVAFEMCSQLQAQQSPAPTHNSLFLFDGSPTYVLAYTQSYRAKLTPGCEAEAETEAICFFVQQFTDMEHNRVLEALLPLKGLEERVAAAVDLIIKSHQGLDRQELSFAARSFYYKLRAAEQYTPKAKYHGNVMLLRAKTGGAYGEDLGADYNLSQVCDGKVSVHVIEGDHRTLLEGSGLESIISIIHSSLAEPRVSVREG
Method in brief: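 Read-out relies on hydrophobic ³H-palmitate product, formed from ³H-acetyl-CoA and malonyl-CoA, binding streptavidin imaging beads, measured at 610±20 nm after at least 24 h. Full-length enzyme (300 ng) in phosphate buffer pH 7.5 with DTT; eight compound concentrations, 0.01–30 μM.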

[2] = test system: LNCaP-Vancouver prostate cells; experiment: In vitro LNCaP Vancouver prostate cell proliferation assay in lipid reduced medium; format: cell-based; conditions: read-out: pIC50 LNCaP_Vancouver prostate cell (converted)
[3] = test system: A2780 ovarian cells; experiment: A2780 ovarian cell proliferation assay in lipid reduced medium, with palmitate (MTT); format: cell-based; conditions: Homo sapiens, A2780, 96 h; read-out: pIC50 A2780 Ovarian Cell, With Palmitate (converted)
Method in brief: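 In this palmitate-supplemented format, compound dilutions (30 μM down to 0.01 μM) are added to cells in lipid-reduced serum with 25 μM palmitate, 0.2% fatty-acid-free BSA and 0.25% ethanol. After four days (96 h) MTT absorbance at 544 nm is recorded and fitted by minimum sum of squares.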

[4] = test system: A2780 ovarian cells; experiment: A2780 ovarian cell proliferation assay in lipid reduced medium, without palmitate (MTT); format: cell-based; conditions: Homo sapiens, A2780, 96 h; read-out: pIC50 A2780 Ovarian Cell, Without Palmitate (converted)
[5] = molecular target: Fatty Acid Synthase Keto-reductase Domain (FASN KR) (Homo sapiens, UniProt P49327); experiment: Fatty Acid Synthase keto-reductase domain (FASN KR) inhibition, NADPH oxidation at 340 nm
Chain of Fatty Acid Synthase Keto-reductase Domain (FASN KR) (P49327 whole entry, the tested form may be a part): as the sequence (P49327 whole entry) above
Procedure: After 20 minutes incubation at room temperature the plate was measured again (T2).
The decrease in absorbance was calculated as (Absorbance before incubation T1)−(Absorbance following incubation T2).
A plot of Controlmin versus test compound concentration was fitted to a 4-parameter logistic curve using a non-linear least squares regression method.

[6] = test system: PC-3M-Luc-C6 prostate cells; experiment: In vitro PC-3M-Luc-C6 prostate cell proliferation assay in lipid reduced medium; format: cell-based; conditions: 96 h, read-out: pIC50 PC-3M-Luc-C6 prostate cell (converted)

Row | inhibition at 10 µM [1] [%] | IC50 [1] [nM] | IC50 [2] [nM] | IC50 [3] [nM] | IC50 [4] [nM] | IC50 [5] [nM] | IC50 [6] [nM] | SMILES
1 | 91 | 457 | > 3020 | > 6170 | 1260 | 1450 | 2190 | O=C1Cc2cc(-c3ccc(C4=NC5(CC5)C(=O)N4C[C@@H]4CCN(C(=O)C5CC5)C4)cc3)ccc2N1 [compound 457, 5-[4-(6-{[(3R)-1-(Cyclopropylcarbonyl)pyrrolidin-3-yl]methyl}-7-oxo-4,6-diazaspiro[2.4]hept-4-en-5-yl)phenyl]-1,3-dihydro-2H-indol-2-one]
2 | 95 | 141 | ~2510 | > 10000 | ~427 | 1170 | ~603 | O=C1Cc2ccc(-c3ccc(C4=NC5(CC5)C(=O)N4C[C@@H]4CCN(C(=O)C5CC5)C4)cc3)cc2N1 [compound 461, 6-[4-(6-{[(3R)-1-(Cyclopropylcvarbonyl)pyrrolidin-3-yl]methyl}-7-oxo-4,6-diazaspiro[2.4]hept-4-en-5-yl)phenyl]-1,3-dihydro-2H-indol-2-one]
3 | 98 | 158 | 2340 | > 10000 | 1860 | 912 | 1170 | O=C(C1CC1)N1CC[C@@H](CN2C(=O)C3(CC3)N=C2c2ccc(-c3ccc4c(c3)CCO4)cc2)C1 [compound 462, 6-{[(3R)-1-(Cyclopropylcarbonyl)pyrrolidin-3-yl]methyl}-5-[4-(2,3-dihydro-1-benzofuran-5-yl)phenyl]-4,6-diazaspiro[2.4]hept-4-en-7-one]
4 | 93 | 224 | 7240 | > 10000 | ~3800 | 977 | 1910 | N#Cc1cc2cc(-c3ccc(C4=NC5(CC5)C(=O)N4C[C@@H]4CCN(C(=O)C5CC5)C4)cc3F)ccc2o1 [compound 463, 5-[4-(6-{[(3R)-1-(Cyclopropylcarbonyl)pyrrolidin-3-yl]methyl}-7-oxo-4,6-diazaspiro[2.4]hept-4-en-5-yl)-2-fluorophenyl]-1-benzofuran-2-carbonitrile]
5 | 93 | 331 | 2880 | > 10000 | 759 | 977 | 776 | O=C(C1CC1)N1CC[C@@H](CN2C(=O)C3(CC3)N=C2c2ccc(-c3ccc4c(=O)[nH]ccc4c3)cc2)C1 [compound 467, 6-[4-(6-{[(3R)-1-(Cyclopropylcarbonyl)pyrrolidin-3-yl]methyl}-7-oxo-4,6-diazaspiro[2.4]hept-4-en-5-yl)phenyl]isoquinolin-1(2H)-one]
6 | 90 | 427 | 2040 | > 10000 | 661 | 1580 | 550 | COc1nccc2cc(-c3ccc(C4=NC5(CC5)C(=O)N4C[C@@H]4CCN(C(=O)C5CC5)C4)cc3)ccc12 [compound 468, 6-{[(3R)-1-(Cyclopropylcarbonyl)pyrrolidin-3-yl]methyl}-5-[4-(1-methoxyisoquinolin-6-yl)phenyl]-4,6-diazaspiro[2.4]hept-4-en-7-one]
7 | 98 | 182 | 1480 | > 10000 | ~933 | 115 | ~631 | COc1cc2cc(-c3ccc(C4=NC5(CC5)C(=O)N4C[C@@H]4CCN(C(=O)C5CC5)C4)cc3)ccc2cn1 [compound 470, 6-{[(3R)-1-(Cyclopropylcarbonyl)pyrrolidin-3-yl]methyl}-5-[4-(3-methoxyisoquinolin-6-yl)phenyl]-4,6-diazaspiro[2.4]hept-4-en-7-one]
8 | 93 | 166 | 3310 | > 10000 | 813 | 372 | 661 | N#Cc1cc2cc(-c3ccc(C4=NC5(CC5)C(=O)N4CC4CN(C(=O)C5CC5)C4)cc3)ccc2o1 [compound 475, 5-[4-(6-{[1-(Cyclopropylcarbonyl)azetidin-3-yl]methyl}-7-oxo-4,6-diazaspiro[2.4]hept-4-en-5-yl)phenyl]-1-benzofuran-2-carbonitrile]
9 | 95 | 162 | 933 | > 10000 | 692 | 447 | 302 | O=C(C1CC1)N1CC[C@@H](CN2C(=O)C3(CC3)N=C2c2ccc(-c3ccc4c(Cl)nccc4c3)cc2)C1 [compound 479, 5-[4-(1-Chloroisoquinolin-6-yl)phenyl]-6-{[(3R)-1-(cyclopropylcarbonyl)pyrrolidin-3-yl]methyl}-4,6-diazaspiro[2.4]hept-4-en-7-one]
10 | 95 | 107 | 380 | > 10000 | 47.9 | 174 | ~91.2 | Cn1nc(N)c2ccc(-c3ccc(C4=NC5(CC5)C(=O)N4C[C@@H]4CCN(C(=O)C5CC5)C4)cc3)cc21 [compound 483, 5-[4-(3-Amino-1-methyl-1H-indazol-6-yl)phenyl]-6-{[(3R)-1-(cyclopropylcarbonyl)pyrrolidin-3-yl]methyl}-4,6-diazaspiro[2.4]hept-4-en-7-one]
11 | 99 | 151 | 550 | > 10000 | 95.5 | 257 | 151 | COCc1nn(C)c2cc(-c3ccc(C4=NC5(CC5)C(=O)N4C[C@@H]4CCN(C(=O)C5CC5)C4)cc3)ccc12 [compound 484, 6-{[(3R)-1-(Cyclopropylcarbonyl)pyrrolidin-3-yl]methyl}-5-{4-[3-(methoxymethyl)-1-methyl-1H-indazol-6-yl]phenyl}-4,6-diazaspiro[2.4]hept-4-en-7-one]
12 | 96 | 162 | 631 | > 10000 | ~123 | 302 | 214 | Cn1nc(CO)c2ccc(-c3ccc(C4=NC5(CC5)C(=O)N4C[C@@H]4CCN(C(=O)C5CC5)C4)cc3)cc21 [compound 485, 6-{[(3R)-1-(Cyclopropylcarbonyl)pyrrolidin-3-yl]methyl}-5-{4-[3-(hydroxymethyl)-1-methyl-1H-indazol-6-yl]phenyl}-4,6-diazaspiro[2.4]hept-4-en-7-one]
13 | 81 | 1510 | 4470 | > 10000 | ~2190 | 2630 | ~2820 | COCc1c2ccc(-c3ccc(C4=NC5(CC5)C(=O)N4C[C@@H]4CCN(C(=O)C5CC5)C4)cc3)cc2nn1C [compound 486, 6-{[(3R)-1-(Cyclopropylcarbonyl)pyrrolidin-3-yl]methyl}-5-{4-[3-(methoxymethyl)-2-methyl-2H-indazol-6-yl]phenyl}-4,6-diazaspiro[2.4]hept-4-en-7-one]
14 | 88 | 214 | 1550 | > 10000 | 302 | 501 | 575 | Cc1cc(-c2ccc3c(cnn3C)c2)ccc1C1=NC2(CC2)C(=O)N1CC1CN(C(=O)N(C)C)C1 [compound 488, N,N-Dimethyl-3-({5-[2-methyl-4-(1-methyl-1H-indazol-5-yl)phenyl]-7-oxo-4,6-diazaspiro[2.4]hept-4-en-6-yl}methyl)azetidine-1-carboxamide]
15 | 98 | 166 | 1260 | > 10000 | ~209 | 427 | 158 | Cn1nc(C#N)c2ccc(-c3ccc(C4=NC5(CC5)C(=O)N4C[C@@H]4CCN(C(=O)C5CC5)C4)cc3)cc21 [compound 493, 6-[4-(6-{[(3R)-1-(Cyclopropylcarbonyl)pyrrolidin-3-yl]methyl}-7-oxo-4,6-diazaspiro[2.4]hept-4-en-5-yl)phenyl]-1-methyl-1H-indazole-3-carbonitrile]
16 | 95 | 219 | 4680 | > 10000 | 692 | 661 | 891 | NC(=O)c1cccc(-c2ccc(C3=NC4(CC4)C(=O)N3C[C@@H]3CCN(C(=O)C4CC4)C3)cc2)c1 [compound 494, 4′-(6-{[(3R)-1-(Cyclopropylcarbonyl)pyrrolidin-3-yl]methyl}-7-oxo-4,6-diazaspiro[2.4]hept-4-en-5-yl)biphenyl-3-carboxamide]
17 | 95 | 257 | ~3240 | > 10000 | 275 | 724 | ~589 | Cc1cc(-c2ccc3c(cnn3C)c2)ccc1C1=NC2(CC2)C(=O)N1CC1CN(C(=O)C(C)(C)O)C1 [compound 495, 6-{[1-(2-Hydroxy-2-methylpropanoyl)azetidin-3-yl]methyl}-5-[2-methyl-4-(1-methyl-1H-indazol-5-yl)phenyl]-4,6-diazaspiro[2.4]hept-4-en-7-one]
